In patent US4749704A, “Cyclopenta[d]pyrimidine derivatives and use as antidepressants” (Sankyo Company Limited, priority 1985, dated 1988):

How the values were obtained:
[1] = background statement; cited from earlier work
[2] = test system: reserpine-induced ptosis; experiment: Test for Anti-reserpine Activity (inhibition of reserpine-induced ptosis); assay type: in vivo, male mice of the ddy strain; conditions: mice, oral, reserpine 2 mg/kg s.c., ptosis at 90, 120 and 180 min
Protocol: The test animals used were male mice of the ddy strain, each weighing 23-25 g. Each compound was tested on a group of five such mice. Each test compound was employed in the form of a solution or suspension in a physiological saline solution containing 0.3% w/v carboxymethylcellulose. The test employed was a partial modification of the method of Rubin et al. [J. Pharmacol. Exptl. Therap., 120, 125 (1957)].
2 mg/kg of reserpine were injected subcutaneously into each mouse and, immediately after the injection, the solution or suspension of the test compound was given orally in a dose of 5 mg/kg, 10 mg/kg or 25 mg/kg, as shown in the following Table. The animals were observed 90 minutes, 120 minutes and 180 minutes after administration to evaluate the inhibition of ptosis. At each observation, each mouse was assigned from 0 to 3 points corresponding to the degree of ptosis, as follows:
0 points: eyes completely open;
1 point: eyes about one third closed;
2 points: eyes about two thirds closed;
3 points: eyes completely closed.
For each mouse, the number of points from all three observations were added together, and the percentage inhibition of reserpine-induced ptosis (Ri) was calculated from the following formula:
Po =total number of points from three observations of an animal to which reserpine alone was administered; and
Pt =total number of points from three observations of an animal to which reserpine and the test compound were administered.

[3] = test system: male rats of the F-344 strain; experiment: Acute Toxicity Test (single oral dose, 7 days observation); assay type: in vivo, rat (F-344 strain)
Protocol: The test animals used were male rats of the F-344 strain, each weighing from 150 to 170 g. One group of animals was fed normally, whilst another group was starved for 24 hours before administration of the test compound. To each animal was administered orally a single dose of the test compound in the amount shown in the following Table; the animals were then placed under observation for 7 days after administration. The results are reported in Table as "Mortality", where the numerator indicates the number of deaths in the observation period and the denominator indicates the number of animals tested with the particular test compound at the particular dose.

[4] = test system: monoamine oxidase; experiment: Toxicity to the Liver (inhibition of monoamine oxidase in the rat liver); assay type: biochemical; conditions: estimated from inhibition of monoamine oxidase in the rat liver

Structure (SMILES) | side-effect activities [1] | Ri % (percentage inhibition of reserpine-induced ptosis) ([2]; dose 5 mg (5 mg/kg)) [%] | Ri % (percentage inhibition of reserpine-induced ptosis) ([2]; dose 10 mg (10 mg/kg)) [%] | Ri % (percentage inhibition of reserpine-induced ptosis) ([2]; dose 25 mg (25 mg/kg)) [%] | Mortality (deaths/animals tested) ([3]; fed rats, single oral dose 800 mg) | Mortality (deaths/animals tested) ([3]; starved (24 hours) rats, single oral dose 1500 mg) | toxicity to the liver relative to the prior art compound (Compound A) [4] | Mortality (deaths/animals tested) ([3]; fed rats, single oral dose 200 mg) | Mortality (deaths/animals tested) ([3]; starved (24 hours) rats, single oral dose 200 mg)
CN(C)CCCN1c2ccccc2CCc2ccccc21 [Imipramine] | exhibits antihistaminic and anticholinergic activities | – | – | – | – | – | – | – | –
N#Cc1ccc(Nc2ncnc3c2CCC3O)cc1 (stereo not shown) [Compound No. 31, 4-(4-Cyanoanilino)-6,7-dihydro-7-hydroxy-5H-cyclopenta[d]pyrimidine] | – | 50 | 71.4 | 85.7 | 0/5 | 0/5 | about half that of the prior art compound | – | –
N#Cc1ccc(Nc2ncnc3c2CCC3)cc1 [Compound A, 4-(4-cyanoanilino)-6,7-dihydro-5H-cyclopenta[d]pyrimidine, reference compound] | – | – | – | 85.0 | – | – | – | 1/5 | 3/5
